In brackets after ≈: the same amount, converted by molar mass. Read-outs that look alike come from different tables or passages of the source.
Experiments:
Aqueous solubility = assay type: physicochemical; conditions: aqueous solution
human TRPV1 [1] = target: T1, human TRPV1 (Homo sapiens, UniProt Q8NER1); experiment: Capsaicin-based assay, Protocol 2 (TRPV1/CHO cells, Fluo-4, FLIPR); assay type: cell-based; conditions: capsaicin 100 nM final, mean ± SEM, number of trials in parentheses, read-out: TRPV1 IC50 Potency, Human Capsaicin CHO (hCAP-CHO)
T1 construct: using primers designed surrounding the complete hTRPV1 open reading frame; expressed in transfected cells; host or cells: CHO-K1 cells stably transfected with pcDNA3.1(-)-hVR1 plasmid
How it was run: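 CHO cells stably transfected with human TRPV1 cDNA, kept under G418 selection, loaded with 3 μM Fluo-4 for 1 h. Calcium fluorescence followed on FLIPR after a 15 s baseline against capsaicin challenge; compounds at final 100 μM to 1.5625 μM, curves fitted over the full time course.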

human TRPV1 [2] = target: T1, human TRPV1; experiment: pH-based assay, Protocol 2 (TRPV1/CHO cells, Fura-2 AM, FDSS-3000, pH 5.0-5.1); assay type: cell-based; conditions: H2SO4 agonist, mean ± SEM, number of trials in parentheses, read-out: TRPV1 IC50 Potency, Human pH CHO (hpH-CHO)
Description: For Protocol 2, a Chinese Hamster Ovary cell line (CHO) that has been engineered to constitutively express human recombinant TRPV1 was used (TRPV1/CHO cells). The TRPV1/CHO cell line was generated as described below.
The resulting PCR products were purified from agarose gels using Gel Band Purification Kit (GE Healthcare Bioscience) and were subcloned into pCR-Blunt vector (Invitrogen). The cloned cDNA was fully sequenced using a fluorescent dye-terminator reagent (BigDye Terminator ver3.1 Cycle Sequencing Kit, Applied Biosystems) and ABI Prism 3100 genetic analyzer (Applied Biosystems). The pCR-Blunt vector containing the hTRPV1 cDNA was subjected to restriction digestion with EcoRI. The restriction fragment was subcloned into expression vector pcDNA3.1 (−) (Invitrogen) and named pcDNA3.1 (−)-hVR1 plasmid. The sequence of the cDNA encoding TRPV1 is available at GenBank accession number AJ277028.
CHO-K1 cells were maintained in growth medium consisting of α-MEM, 10% FBS (Hyclone), and 100 IU/mL of penicillin-100 μg/mL of streptomycin mixed solution (Nacalai Tesque, Japan) at 37° C. in an environment of humidified 95% air and 5% CO2. The cells were transfected with the pcDNA3.1 (−)-hVR1 plasmid using FuGENE6 (Roche) according to the manufacturer's protocol. 24 hr after transfection, neomycin-resistant cells were selected using 1 mg/mL G418 (Nacalai Tesque). After 2 weeks, individual colonies were picked, expanded, and screened for the expression of hTRPV1 in the capsaicin-induced Ca^2+ influx assay (see below) with a FLIPR (Molecular Devices). A clone with the largest Ca^2+ response to capsaicin was selected and re-cloned by the same procedure. The cells expressing hTRPV1 were cultured in the growth medium supplemented with 1 mg/mL G418.
TRPV1/CHO cells were seeded in the 96-well clear-bottom black-wall plate (Nunc) at densities of 1-2×10^4 cells/well and grown in 100 μL of culture medium (alpha-MEM supplemented with 10% FBS, 20 mM HEPES, 1 mg/mL geneticin and 1% antibiotic-antimycotic mixed stock solution) for 1-2 days before the experiment.
Different agonist solutions with sulfuric acid concentrations of from 15 mM to 18 mM (see FIG. 1) were prepared by diluting 1M sulfuric acid with measuring buffer. The different sulfuric acid concentrations in the agonist solutions were selected such that a 1:4 dilution would result in a final sulfuric acid concentration of between 3.0 mM to 3.6 mM, respectively, as indicated in FIG. 1.
The cells were stimulated using 3.0 mM (well number B1-6), 3.1 mM (C1-6), 3.2 mM (D1-6), 3.3 mM (E1-6), 3.4 mM (F1-6), 3.5 mM (G1-6), or 3.6 mM (H1-6) H2SO4 or pH 7.2 measuring buffer without H2SO4 (A1-6) (FIG. 2).
(1) Culture medium was removed using an 8-channel-pipette (Rainin, USA) from the 96-well plate and the wells were refilled with 100 μL of loading buffer (20 mM HEPES, 115 mM NaCl, 5.4 mM KCl, 0.8 mM MgCl2, 1.8 mM CaCl2, 13.8 mM D-glucose, 2.5 mM probenecid, pH 7.4) containing 5 μM Fura-2 AM (Dojin, Japan).
(2) The 96-well plate was incubated at 37° C. for 45 min.
(3) The loading buffer was removed from each well. The cells were subsequently washed twice with 150 μL of measuring buffer (20 mM HEPES, 115 mM NaCl, 5.4 mM KCl, 0.8 mM MgCl2, 5.0 mM CaCl2, 13.8 mM D-glucose, 0.1% BSA, pH 7.4) (no probenecid). The wells were then refilled with 80 μL of measuring buffer.
(4) After an incubation at 4° C. for 15 min, the 96-well plate was transferred to FDSS-3000 (Hamamatsu Photonics, Japan).
(5) The Fura-2 fluorescent intensity was monitored at a wavelength of 340 nm and at 380 nm, respectively, at a rate of 0.5 Hz for a total of 240 seconds.

[3] = pH 1.2, simulated gastric fluid, read-out: aqueous solubility at pH 1.2
[4] = pH 6.8, aqueous buffer, read-out: aqueous solubility at pH 6.8

T1 sequence (Q8NER1 whole entry): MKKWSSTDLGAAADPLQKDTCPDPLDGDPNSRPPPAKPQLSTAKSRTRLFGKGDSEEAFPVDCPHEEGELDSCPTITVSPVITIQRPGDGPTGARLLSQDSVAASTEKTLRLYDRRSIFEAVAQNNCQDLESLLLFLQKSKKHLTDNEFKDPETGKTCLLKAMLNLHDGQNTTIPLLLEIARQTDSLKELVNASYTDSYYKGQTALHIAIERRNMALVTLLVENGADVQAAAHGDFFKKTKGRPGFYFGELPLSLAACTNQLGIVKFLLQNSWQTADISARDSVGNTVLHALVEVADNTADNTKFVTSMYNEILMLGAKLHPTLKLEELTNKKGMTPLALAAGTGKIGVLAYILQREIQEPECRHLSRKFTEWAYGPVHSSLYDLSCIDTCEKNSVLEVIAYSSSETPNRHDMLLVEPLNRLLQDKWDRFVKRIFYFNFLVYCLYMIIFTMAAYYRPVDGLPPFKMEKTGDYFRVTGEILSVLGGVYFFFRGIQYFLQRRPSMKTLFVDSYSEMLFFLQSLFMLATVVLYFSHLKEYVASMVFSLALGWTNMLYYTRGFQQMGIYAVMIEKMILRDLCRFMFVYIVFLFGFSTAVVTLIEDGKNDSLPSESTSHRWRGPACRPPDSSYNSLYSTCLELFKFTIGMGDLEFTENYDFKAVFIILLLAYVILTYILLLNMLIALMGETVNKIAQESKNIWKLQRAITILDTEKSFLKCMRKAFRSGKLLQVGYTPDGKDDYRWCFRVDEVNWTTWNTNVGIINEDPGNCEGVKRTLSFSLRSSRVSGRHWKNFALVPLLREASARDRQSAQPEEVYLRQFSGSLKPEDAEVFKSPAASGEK

Row | Structure (SMILES) | solubility (Aqueous solubility; [3]) | solubility (Aqueous solubility; [4]) | IC50 (human TRPV1 [1]) | IC50 (human TRPV1 [2])
1 | O=C(Nc1ccc(C(F)(F)F)cc1)N1CC=C(c2ncccc2Cl)CC1 [Compound 200] | < 0.1 µM | < 0.1 µM | – | –
2 | O=C(Nc1ccc(OC(F)(F)F)cc1)N1CCC(F)(c2ncc([C@H](O)CO)cc2Cl)CC1 [Compound C1] | > 50 µM | 15.7 µM (≈ 7.5 µg/mL) | 15.3 ± 6.9 nM | 11.3 ± 0.8 nM
3 | O=C(Nc1ccc(OC(F)(F)F)cc1)N1CC=C(c2ncc([C@H](O)CO)cc2Cl)CC1 [Compound E2] | > 50 µM | > 50 µM | 107 ± 18.8 nM | 20.3 ± 1.7 nM
4 | N#CCc1cnc(C2=CCN(C(=O)Nc3ccc(C(F)(F)F)cc3)CC2)c(Cl)c1 [Compound E6, 4-(3-chloro-5-(cyanomethyl)pyridin-2-yl)-N-(4-(trifluoromethyl)phenyl)-5,6-dihydropyridine-1(2H)-carboxamide] | 27.2 µM (≈ 11.4 µg/mL) | 9 µM (≈ 3.79 µg/mL) | 265 nM | –
5 | O=C(Nc1ccc(C(F)(F)F)c(F)c1)N1CCC(F)(c2ncc([C@H](O)CO)cc2Cl)CC1 [Compound F1] | > 50 µM | 22.6 µM (≈ 10.8 µg/mL) | 18.6 ± 6.8 nM | 9 ± 2.3 nM
6 | CCOC(=O)c1cnc(C2=CCN(C(=O)Nc3ccc(C(F)(F)F)cc3)CC2)c(Cl)c1 [Compound F2] | 1 µM (≈ 0.454 µg/mL) | 3 µM (≈ 1.36 µg/mL) | 108 ± 24.3 nM | 62.9 ± 8.8 nM
7 | COC(=O)Cc1cnc(C2=CCN(C(=O)Nc3ccc(C(F)(F)F)cc3)CC2)c(Cl)c1 [Compound F6] | > 50 µM | 9.2 µM (≈ 4.18 µg/mL) | 864 nM | 467 nM
8 | CC(O)c1cnc(C2=CCN(C(=O)Nc3ccc(C(F)(F)F)cc3)CC2)c(Cl)c1 (stereo not shown) [Compound G2] | > 50 µM | 38.2 µM (≈ 16.3 µg/mL) | 112 ± 22.3 nM | 84.8 ± 8.8 nM
9 | O=C(O)Cc1cnc(C2=CCN(C(=O)Nc3ccc(C(F)(F)F)cc3)CC2)c(Cl)c1 [Compound G6] | > 50 µM | > 50 µM | > 25000 nM | –
10 | O=C(Nc1ccc(S(=O)(=O)C(F)(F)F)cc1)N1CCC(F)(c2ncc([C@H](O)CO)cc2Cl)CC1 [Compound H1] | > 50 µM | > 50 µM | 31.7 ± 8.9 nM | –
11 | CN(C)Cc1cnc(C2=CCN(C(=O)Nc3ccc(C(F)(F)F)cc3)CC2)c(Cl)c1 [Compound H6] | > 50 µM | > 50 µM | 924 nM | –
12 | O=C(Nc1ccc(C(F)(F)F)cc1)N1CC=C(c2ncc(CO)cc2Cl)CC1 [Compound J2] | > 50 µM | > 50 µM | 129 ± 26 nM | 41.7 ± 4.4 nM
13 | O=C(Nc1ccc(C(F)(F)F)cc1)N1CCC(F)(c2ncc([C@H](O)CO)cc2Cl)CC1 [Compound N1, (S)-4-(3-chloro-5-(1,2-dihydroxyethyl)pyridin-2-yl)-4-fluoro-N-(4-(trifluoromethyl)phenyl)piperidine-1-carboxamide] | > 50 µM | 28 µM (≈ 12.9 µg/mL) | 38.7 ± 5.3 nM | 6.3 ± 0.8 nM
14 | O=C(Nc1ccc(C(F)(F)F)cc1)N1CCC(F)(c2ncc([C@H](O)CO)cc2F)CC1 [Compound N6] | > 50 µM | > 50 µM | – | –
15 | O=C(Nc1ccc(C(F)(F)F)c(F)c1)N1CC=C(c2ncc([C@H](O)CO)cc2Cl)CC1 [Compound S1, (S)-3-Chloro-5-(1,2-dihydroxy-ethyl)-3′,6′-dihydro-2′H-[2,4′]bipyridinyl-1′-carboxylic acid (3-fluoro-4-trifluoromethyl-phenyl)amide] | > 50 µM | > 50 µM | 53.5 ± 16.3 nM | 16.3 ± 2 nM
16 | O=C(Nc1ccc(C(F)(F)F)cc1)N1CC=C(c2ncc([C@H](O)CO)cc2F)CC1 [Compound U1] | > 50 µM | > 50 µM | 61.3 ± 22.5 nM | 14.7 ± 3.3 nM
17 | O=C(Nc1ccc(OC(F)(F)F)cc1)N1CC=C(c2ncc([C@H](O)CO)cc2F)CC1 [Compound V1] | – | – | 66.3 ± 5.7 nM | 22.4 ± 1.1 nM

Row | Structure (SMILES) | solubility (Aqueous solubility; [3]) | solubility (Aqueous solubility; [4]) | IC50 (human TRPV1 [1]) | IC50 (human TRPV1 [2])
18 | O=C(Nc1nc2ccc(Cl)cc2s1)N1CC=C(c2ncc(CO)cc2Cl)CC1 [Compound V2] | – | – | 234 ± 44.6 nM | 83.2 ± 7.6 nM
19 | Cc1cc(NC(=O)N2CCC(F)(c3ncc([C@@H](O)CO)cc3Cl)CC2)ccc1OC(F)(F)F [Compound V5] | – | – | 45.5 ± 2.1 nM | 10.1 ± 1.4 nM
20 | O=C(Nc1nc2ccc(F)cc2s1)N1CCN(c2ncc([C@H](O)CO)cc2Cl)CC1 [Compound V6, (S)-4-(3-chloro-5-(1,2-dihydroxyethyl)pyridin-2-yl)-N-(6-fluorobenzo[d]thiazol-2-yl)piperazine-1-carboxamide] | – | – | 16 ± 1.6 nM | 6.2 nM
21 | O=C(Nc1nc2ccc(Cl)cc2s1)N1CC=C(c2ncc([C@H](O)CO)cc2Cl)CC1 [Compound W1] | – | – | 68.9 ± 18.4 nM | 9.3 ± 1.9 nM
22 | O=C(Nc1nc2ccc(F)cc2s1)N1CC=C(c2ncc(CO)cc2Cl)CC1 [Compound W2] | – | – | 245 ± 34.4 nM | 241 ± 34.9 nM
23 | O=C(Nc1nc2ccc(Cl)cc2s1)N1CCC(F)(c2ncc([C@H](O)CO)cc2F)CC1 [Compound W3] | – | – | 35.6 ± 8.9 nM | 22.4 nM
24 | O=C(Nc1ccc(C(F)(F)F)c(F)c1)N1CC=C(c2ncc([C@@H](O)CO)cc2Cl)CC1 [Compound W5] | – | – | 423 ± 123 nM | 71.2 ± 10.5 nM
25 | O=C(Nc1ccc(Cl)c(C(F)(F)F)c1)N1CCN(c2ncc([C@H](O)CO)cc2Cl)CC1 [Compound W6, (S)—N-(4-chloro-3-(trifluoromethyl)phenyl)-4-(3-chloro-5-(1,2-dihydroxyethyl)pyridin-2-yl)piperazine-1-carboxamide] | – | – | 32.9 ± 11.8 nM | 14.9 ± 2.2 nM
26 | CN(C)c1ccc(NC(=O)N2CC=C(c3ncc(CO)cc3Cl)CC2)cc1C(F)(F)F [Compound X1] | – | – | 74.4 ± 11.5 nM | 18.8 ± 1.6 nM
27 | CC(C)(O)c1cnc(C2=CCN(C(=O)Nc3ccc(C(F)(F)F)cc3)CC2)c(Cl)c1 [Compound X2] | – | – | 248 ± 25.1 nM | 81.1 ± 10.5 nM
28 | O=C(Nc1ccc(OCC2CC2)c(C(F)(F)F)c1)N1CC=C(c2ncc(CO)cc2Cl)CC1 [Compound Y2] | – | – | 351 ± 69.8 nM | 59.9 ± 11.8 nM
29 | O=C(Nc1ccc(C(F)(F)F)c(F)c1)N1CCC(F)(c2ncc([C@H](O)CO)cc2F)CC1 [Compound Y3] | > 50 µM | 17.4 µM (≈ 8.06 µg/mL) | 43.9 ± 10 nM | –
30 | O=C(Nc1ccc(C(F)(F)F)cn1)N1CCC(F)(c2ncc([C@@H](O)CO)cc2F)CC1 [Compound Y5] | – | – | 196 ± 37.7 nM | 108 ± 7.7 nM
31 | O=C(Nc1ccc(C(F)(F)F)cn1)N1CC=C(c2ncc(CO)cc2Cl)CC1 [Compound Z2] | – | – | 401 ± 122 nM | 248 ± 45.3 nM
32 | O=C(Nc1nc2ccc(Cl)cc2s1)N1CCC(F)(c2ncc([C@H](O)CO)cc2Cl)CC1 [Compound Z4] | – | – | 62.8 ± 11.4 nM | 16.5 ± 3.3 nM
33 | O=C(Nc1nc2ccc(Cl)cc2s1)N1CCC(F)(c2ncc([C@@H](O)CO)cc2F)CC1 [Compound Z5] | – | – | 35.5 ± 3.9 nM | 16.4 ± 1.9 nM

Reference: patent US20090170867A1, “TRPV1 ANTAGONISTS INCLUDING SULFONAMIDE SUBSTITUENT AND USES THEREOF” (Shionogi & Co., Ltd., priority 2007, published 2009)
